Laboratory results: patent publication EP0277849A1, “Incorporation of one or more lipophilic, active principles into lipoproteins, lipoproteins obtained and pharmaceutical compositions containing them” (IRE-CELLTARG S.A., priority 1987, dated 1988)
Like-named read-outs stand apart in the source and are kept apart here.

Assays:
[1] = Incorporation of antifungal agent into LDL by NaDoc dissociation-reconstitution; type: physicochemical; details: 1,6 mg LDL, 482 µg of agent, dialysis
Description: On ajoute à 1,6 mg de LDL préalablement dialysées contre le tampon C, 10 mg de NaDoc solide et on laisse réagir 30 minutes à température ambiante. On ajoute à la préparation 2,8 ml d'une solution NaDoc 20 mM, Na2COs 50 mM, NaCi 50 mM, pH 10 contenant 482 µg de CT4000A ou 482 µg de CT040013. Les échantillons sont dialysés à 4° C contre trois fois 1 litre de tampon B.
Le pourcentage de récupération en LDL, en CT040013 et en NaDoc est déterminé au terme du processus de reconstitution (figure 13).
Il est également possible de rapporter la masse de substance incorporée par mole de LDL. Les résultats obtenus pour le CT04000A et la CT040013 sont respectivement de 0,4 et de 208 moles incorporés par mole de LDL.

Candida tropicalis = experiment: Intracellular infection model: J77468 macrophages infected with Candida tropicalis; type: cell-based; details: 2 % de sérum de veau foetal
Description: (§1) La lignée continue de macrophages J77468 d'origine murine provient d'un clonage de la souche J774 ATCC, et est cultivée en milieu RPMI 1640 additionné de glutamine 2 mM, 10% de sérum de veau foetal (décomplémenté 60 min. à 56°) et de 10 mM Hepes (pH 7.2). Une suspension de 5 10^6 cellules/ml sont infectées avec une culture de Candida tropicalis (5 10^5 levures/ml) provenant d'une culture de nuit dans de la casitone. Le milieu d'infection utilisé est du RPMI contenant 2 % de sérum de veau nouveau-né et 10 mM Hepes (pH 7.2).
(§2) Après 3 h d'incubation à 37° dans un mélange d'air 10 % C02, la phagocytose des levures est complète. La suspension cellulaire macrophages-Candida est centrifugée, lavée abondamment et répartie à raison de 10^5 macrophages infectés/alvéole dans des boîtes à 24 alvéoles contenant une lamelle de verre (diamètre 14 mm). Après 3 h de phagocytose (To), sur 100 macrophages, 32 contiennent de 1 à 6 Candida/macrophage, l'infection moyenne étant de 2 Candida/macrophage.
(§3) Toutes les levures ont été phagocytées sauf rares exceptions (estimation au microscope optique après coloration au May-Grünwald Giemsa). Douze concentrations différentes des drogues de référence et des drogues encapsulées dans les LDL sont distribuées dans les boîtes contenant les macrophages infectés.
(§4) L'évaluation de l'efficacité d'une drogue se fait à chaque concentration. Testées après 18 h d'incubation (37°, dans un mélange air-10 % C02), les levures se multiplient d'abord au sein des cellules hôtes, puis dans le milieu extracellulaire. Le taux de macrophages infectés est alors de 75 % chez les témoins. Une cellule peut contenir de 1 à plus de 20 Candida/cellule, la majorité contient de 2 à 6 levures/cellule. Le milieu de culture contient 10^8 Candida extracellulaires/ml (comptage dans une cellule de Burker).
L'activité d'une drogue encapsulée ou non dans les LDL ou Ac-LDL par rapport à un antifongique de référence, le kétoconazole (K), est déterminé par la concentration micromolaire en drogue réduisant de 50 % le nombre de macrophages infectés par les Candida (=C150). Signalons que parallèlement à la réduction au cours du traitement, du taux de cellules infectées, le nombre de Candida par macrophage infecté diminue fortement (de 1 à 3 levures/cellule).
Le milieu de culture est RPMI + glutamine 2 mM + Hepes 10 mM + 2 % de sérum de veau foetal.

macrophages J77468 = experiment: Toxicity for J77468 macrophages (MTT reduction); type: cell-based, murine; details: for % de viabilité cellulaire*: 18 h, MTT
Description: as §1
La viabilité des macrophages J77468 cultivés dans du milieu contenant l'agent antifongique encapsulé ou non dans les LDL figure au Tableau 5. K et K01 sont toxiques aux concentrations nécessaires pour réduire de 50 % l'infection intracellulaire (C1250) contrairement au LDL-K01 pour lequel aucune toxicité n'a pu être détectée.

C. tropicalis = experiment: Extracellular infection in the infected-macrophage model; type: cell-based; details: Candida tropicalis, read-out: CIext50^(a)
Description: as §1, §2, §3, §4
L'action des AF encapsulés sur une infection extracellulaire peut être évaluée de deux manières : d'une part en déterminant le nombre de Candida extracellulaires dans un modèle d'infection intracellulaire (voir VIII § 1.1.), d'autre part en mesurant la concentration minimale inhibitrice (CMI) de ces composés par la méthode de dilutions successives dans des boîtes à multipuits (milieu RPMI).

[2] = Incorporation of cytotoxic agent into LDL with submicellar NaDOC; type: physicochemical
Description: Les LDL isolées sur sépharose CL-4B sont dialysées pendant 24 heures à 4° C contre un tampon C.
L'agent thérapeutique est solubilisé dans un solvant organique à raison de 1 mg par ml. 100 µL de cette solution sont évaporés sous Argon dans un tube à essai. On ajoute au résidu sec, 2 ml de la solution de LDL et du NaDOC de façon à atteindre une concentration finale de 1 à 5 mM selon l'agent thérapeutique considéré. […]
Au terme de l'incubation, l'échantillon est filtré sur un filtre Millipore 0,45 µm. Le NaDOC est ensuite éliminé par chromatographie sur gel P6 (Biorard®) préalablement équilibré avec un tampon C.
La concentration en ApoB et en agent thérapeutique est déterminée sur chaque fraction.Les fractions correspondant aux LDL sont mises en commun et dialysées contre un tampon τrisHCl 10 mM NaCI 0,15 M EDTA 0,3 mM pH 7,4 pendant 24 heures à 4°C.
L'ensemble du procédé décrit en IV-1 a été appliqué à un dérivé VINCA ALCALOIDE liposoluble : le "C91 base": (4-désacétyl-vinblastine C-3N-dodécyl-carboxamide). La concentration en NaDOC utilisée lors de l'incubation a été ajustée à 2 mM final.
Si on précipite sélectivement les LDL, plus de 99 % du C91 base se retrouve dans le culot. On confirme ainsi que l'agent thérapeutique est bien associé aux LDL. On appellera cette préparation : LDL-C91. […]

Compound	moles incorporés par mole de LDL [1]	CI50 K/AF (Candida tropicalis)	IC50 (Candida tropicalis; Candida tropicalis, Macrophage, micromolar concentration reducing infected macrophages by 50 %, 18 h, read-out: CI50 (the source's name))	toxicité aux concentrations nécessaires pour réduire de 50 % l'infection intracellulaire (macrophages J77468)	% de viabilité cellulaire* (macrophages J77468; Concentration 0,78 µM)	% de viabilité cellulaire* (macrophages J77468; Concentration 1,56 µM)	% de viabilité cellulaire* (macrophages J77468; Concentration 3,13 µM)	% de viabilité cellulaire* (macrophages J77468; Concentration 6,25 µM)	% de viabilité cellulaire* (macrophages J77468; Concentration 12,50 µM)	% de viabilité cellulaire* (macrophages J77468; Concentration 25,00 µM)	% de viabilité cellulaire* (macrophages J77468; Concentration 50,00 µM)	% de viabilité cellulaire* (macrophages J77468; Concentration 100,00 µM, versus untreated control)	IC50 (C. tropicalis; addition de 2 % Pl.H. (plasma humain))	IC50 (C. tropicalis; addition de 2 % SVF (sérum de veau foetal))	nombre de molécules de drogue incorporées par molécule de LDL ([2]; 2 mM en NaDOC, temps d'incubation de 60 heures (3 heures à 25° C + 57 heures à 4°C))	part retrouvée dans le culot après précipitation sélective des LDL ([2]; NaDOC 2 mM)
CC(=O)N1CCN(c2ccc(OC[C@H]3CO[C@](Cn4ccnc4)(c4ccc(Cl)cc4Cl)O3)cc2)CC1 [K, reference compound]	0,4 moles incorporés par mole de LDL	1	52300 nM	toxiques	85,16%	86,67%	64,56%	50,52%	16,40%	3,16%	3,50%	1,75%	100 nM	100 nM		
4-désacétyl-vinblastine C-3N-dodécyl-carboxamide [C91 base]															70	> 99%
